Test results published in ChEMBL document CHEMBL4033791, “Creation of a Novel Class of Potent and Selective MutT Homologue 1 (MTH1) Inhibitors Using Fragment-Based Screening and Structure-Based Drug Design” (J Med Chem, 2018).
Converted amounts (≈) assume the structure as drawn. The source made the active and inactive calls. The rule behind the calls is not given here.

Experiments:
[1] = Solubility of the compound in buffer
[2] = (§1) Intrinsic clearance in mouse liver microsomes at […] preincubated for 5 mins followed by NADPH addition measured by LC-MS/MS analysis; type: ADME, microsome; conditions: liver microsomes, read-out: CLH
[3] = Drug metabolism in mouse liver microsomes at […] preincubated for 5 mins followed by NADPH addition measured after 30 mins by LC-MS/MS analysis; type: ADME, microsome; conditions: read-out: Drug metabolism
[4] = Apparent permeability across apical to basolateral side in human Caco2 cells at 10 uM after 60 mins by LC-MS/MS analysis; conditions: Caco-2
[5] = Apparent permeability across basolateral to apical side in human Caco2 cells at 10 uM after 60 mins by LC-MS/MS analysis; conditions: Caco-2
[6] = Efflux ratio of permeability in human Caco2 cells at 10 uM after 60 mins by LC-MS/MS analysis; conditions: Caco-2
[7] = molecular target: Oxidized purine nucleoside triphosphate hydrolase (Homo sapiens) (UniProt P36639)
[8] = test system: Liver; assay: as §1; type: ADME, microsome; conditions: microsomes, 1000 µM
[9] = Apparent permeability across apical to basolateral side in human Caco2 cells at 2 uM after 2 hrs by LC-MS/MS analysis; type: ADME, cell-based; conditions: Caco-2
[10] = Apparent permeability across basolateral to apical side in human Caco2 cells at 2 uM after 2 hrs by LC-MS/MS analysis; type: ADME, cell-based; conditions: Caco-2
[11] = Efflux ratio of apparent permeability in human Caco2 cells at 2 uM after 2 hrs by LC-MS/MS analysis; conditions: Caco-2
[12] = molecular target: Oxidized purine nucleoside triphosphate hydrolase (Homo sapiens) (UniProt P36639); assay: Inhibition of human full length MTH1 at 20 uM using 8-Oxo-2-dGTP as substrate preincubated for 15 mins followed substrate addition measured after 1 hr by PPilight pyrophosphate-detection based assay

SMILES	solubility [1] [µM]	microsomal CLint at 1000 µM [2] [µL/min/mg]	metabolised at 0.5 h [3] [%]	Papp A→B at 1 h, 10 µM [4] [×10⁻⁶ cm/s]	Papp B→A at 1 h, 10 µM [5] [×10⁻⁶ cm/s]	efflux ratio at 1 h, 10 µM [6]	other results
c1cncc(C2CCCN2c2ccnc3[nH]ncc23)c1 (centres undefined)	1000 (≈ 265 µg/mL)	45	54	44	50	1.1	
c1cc(-c2cnc3[nH]ccc3c2)c2cc[nH]c2n1	500 (≈ 117 µg/mL)						ΔTm [7]: 7.9 °C
OCc1cc2c(-c3cccc(Cl)c3)ccnc2[nH]1	10 (≈ 2.59 µg/mL)						
c1ccc2c(c1)OCCN2c1ccnc2[nH]ccc12	250 (≈ 62.8 µg/mL)		100	39	35	0.9	microsomal intrinsic clearance [8]: Unstable
c1cncc(-c2ccnc3[nH]ccc23)c1	2000 (≈ 390 µg/mL)						ΔTm [7]: 8.2 °C
Cc1cc2c(-c3cccc(Cl)c3)ccnc2[nH]1	50 (≈ 12.1 µg/mL)						
CN(C)C(=O)c1cc2c(-c3cccc(Cl)c3)ccnc2[nH]1	250 (≈ 74.9 µg/mL)						
N#Cc1cc2c(-c3cccc(Cl)c3)ccnc2[nH]1	250 (≈ 63.4 µg/mL)						
Clc1cccc(-c2ccnc3[nH]ccc23)c1	250 (≈ 57.2 µg/mL)						
CCNC(=O)c1cc2c(N3CCOC[C@@H]3C)ccnc2n1C							inhibition [12]: inactive
c1cnc2c(c1)CCN2c1ccnc2[nH]ccc12	250 (≈ 59.1 µg/mL)						
NC(=O)c1cc2c(-c3cccc(Cl)c3)ccnc2[nH]1	100 (≈ 27.2 µg/mL)						
CNC(=O)c1cc2c(-c3cccnc3)ccnc2[nH]1	1000 (≈ 252 µg/mL)						ΔTm [7]: 14.4 °C
Clc1cccc(-c2ccnc3[nH]ncc23)c1	100 (≈ 23 µg/mL)						
CNC(=O)c1cc2c(-c3cccc(Cl)c3)ccnc2[nH]1	250 (≈ 71.4 µg/mL)						
CCOC(=O)c1ccnc2[nH]ccc12	2000 (≈ 380 µg/mL)						
c1ccc2c(c1)CCN(c1ccnc3[nH]ccc13)C2	10 (≈ 2.49 µg/mL)						
Clc1cccc(-c2ccnc3[nH]c(-c4cnco4)cc23)c1	50 (≈ 14.8 µg/mL)						
COC(C)(C)C1CCCN1c1ccnc2[nH]ncc12 (centres undefined)	1000 (≈ 260 µg/mL)	153	92	75	66	0.9	

More lines, main results first:

solubility [1] [µM]	microsomal CLint at 1000 µM [2] [µL/min/mg]	metabolised at 0.5 h [3] [%]	Papp A→B at 1 h, 10 µM [4] [×10⁻⁶ cm/s]	Papp B→A at 1 h, 10 µM [5] [×10⁻⁶ cm/s]	efflux ratio at 1 h, 10 µM [6]	SMILES	other results
250 (≈ 74.9 µg/mL)						CCNC(=O)c1cc2c(-c3cccc(Cl)c3)ccnc2[nH]1	
250 (≈ 90.9 µg/mL)	25	33	7	46	6.7	O=C(NC1COC1)c1cc2c(N3CCCC3c3ccccn3)ccnc2[nH]1 (centres undefined)	
250 (≈ 86.9 µg/mL)	44	50	13	76	5.7	O=C(NC1CC1)c1cc2c(N3CCCC3c3ccccn3)ccnc2[nH]1 (centres undefined)	
500 (≈ 168 µg/mL)	48	53	15	72	4.7	CCNC(=O)c1cc2c(N3CCCC3c3ccccn3)ccnc2[nH]1 (centres undefined)	
250 (≈ 66.1 µg/mL)	222	99	74	63	0.8	c1ccc(C2CCCN2c2ccnc3[nH]ncc23)cc1 (centres undefined)	
	24	29				O=C(NC1COC1)c1cc2c(N3CCCC3c3cccnc3)ccnc2[nH]1 (centres undefined)	
1000 (≈ 330 µg/mL)	54	56				CCNC(=O)c1cc2c(N3CCCC3C(C)(C)OC)ccnc2[nH]1 (centres undefined)	Papp A→B at 2 h, 2 µM [9]: 170 ×10⁻⁶ cm/s; Papp B→A at 2 h, 2 µM [10]: 225 ×10⁻⁶ cm/s; efflux ratio at 2 h, 2 µM [11]: 1.3
250 (≈ 69.8 µg/mL)						c1ccc(C2CN(c3ccnc4[nH]ccc34)CCO2)cc1 (centres undefined)	
250 (≈ 87.6 µg/mL)	156	90				CCNC(=O)c1cc2c(N3CCOCC3c3ccccc3)ccnc2[nH]1 (centres undefined)	Papp A→B at 2 h, 2 µM [9]: 63 ×10⁻⁶ cm/s; Papp B→A at 2 h, 2 µM [10]: 89 ×10⁻⁶ cm/s; efflux ratio at 2 h, 2 µM [11]: 1.4
100 (≈ 33.4 µg/mL)	130	85	41	63	1.6	CCNC(=O)c1cc2c(N3CCCC3c3ccccc3)ccnc2[nH]1 (centres undefined)	
250 (≈ 65.8 µg/mL)	244	97	69	46	0.7	c1ccc(C2CCCN2c2ccnc3[nH]ccc23)cc1 (centres undefined)	
500 (≈ 168 µg/mL)	49	52	4	31	8.3	CCNC(=O)c1cc2c(N3CCCC3c3cccnc3)ccnc2[nH]1 (centres undefined)	
100 (≈ 31.2 µg/mL)	115	83	18	18	1	O=C(NC1CC1)c1cc2c(-c3cccc(Cl)c3)ccnc2[nH]1	
1000 (≈ 280 µg/mL)	232	97	88	73	0.8	c1ccc(C2COCCN2c2ccnc3[nH]ncc23)cc1 (centres undefined)	
500 (≈ 144 µg/mL)	36	43				CCNC(=O)c1cc2c(N3CCOC[C@@H]3C)ccnc2[nH]1	Papp A→B at 2 h, 2 µM [9]: 148 ×10⁻⁶ cm/s; Papp B→A at 2 h, 2 µM [10]: 209 ×10⁻⁶ cm/s; ΔTm [7]: 21 °C
500 (≈ 157 µg/mL)	45	48				CCNC(=O)c1cc2c(N3CCOCC3C3CC3)ccnc2[nH]1 (centres undefined)	Papp A→B at 2 h, 2 µM [9]: 24 ×10⁻⁶ cm/s; Papp B→A at 2 h, 2 µM [10]: 79 ×10⁻⁶ cm/s; efflux ratio at 2 h, 2 µM [11]: 3.3
